# Laboratory results reported in patent publication US9487482B2, “3,4,5-trimethoxystyrylarylaminopropenones as potential anticancer agents” (Council of Scientific and Industrial Research, priority 2014, dated 2016).
# Key:
# HCT116 cells = assay: In vitro cytotoxicity, MTT assay, HCT116; format: cell-based, human; settings: Homo sapiens, HCT-116, HCT116 (colon carcinoma), 48 h continuous drug exposure
# Method: (§1) All cell lines used in this study were purchased from the American Type Culture Collection (ATCC, United States). A549, MCF-7, and HeLa were grown in Dulbecco's modified Eagle's medium (containing 10% FBS in a humidified atmosphere of 5% CO2 at 37° C.). HCT116 cells were cultured in Eagle's minimal essential medium (MEM) containing non-essential amino acids, 1 mM sodium pyruvate, […] bovine insulin, and 10% FBS. Cells were trypsinized when sub-confluent from T25 flasks/60 mm dishes and seeded in 96-well plates. The synthesized test compounds were evaluated for their in vitro antiproliferative in four different human cancer cell lines. A protocol of 48 h continuous drug exposure was used, and a MTT cell proliferation assay was used to estimate cell viability or growth. The cell lines were grown in their respective media containing 10% fetal bovine serum and were seeded into 96-well microtiter plates in 200 μL, aliquots at plating densities depending on the doubling time of individual cell lines. The microtiter plates were incubated at 37° C., 5% CO2, 95% air, and 100% relative humidity for 24 h prior to addition of experimental drugs. Aliquots of 2 μL, of the test compounds were added to the wells already containing 198 μL, of cells, resulting in the required final drug concentrations. For each compound, four concentrations (1, 10, 100, and 1000 μM) were evaluated, and each was done in triplicate wells. Plates were incubated further for 48 h, and the assay was terminated by the addition of 10 μL, of 5% MTT and incubated for 60 min at 37° C. Later, the plates were air-dried. Bound stain was subsequently eluted with 100 μL, of DMSO, and the absorbance was read on an multimode plate reader (Tecan M200) at a wavelength of 560 nm. Percent growth was calculated on a plate by plate basis for test wells relative to control wells. The above determinations were repeated thrice. The growth inhibitory effects of the compounds were analyzed by generating dose response curves as a plot of the percentage surviving cells versus compound concentration. The sensitivity of the cancer cells to the test compound was expressed in terms of IC50, a value defined as the concentration of compound that produced 50% reduction as compared to the control absorbance. (A. S. Kumar, M. A. Reddy, N. Jain, C. Kishor, T. R. Murthy, D. Ramesh, B. Supriya, A. Addlagatta, S. V. Kalivendi, B. Sreedhar. Eur. J. Med. Chem. 60 (2013) 305-24).
# [1] = system: A549, HeLa, MCF-7 and HCT116 cells; assay: In vitro cytotoxicity, MTT assay, summary over all four cancer cell lines; format: cell-based; settings: Homo sapiens, range over the group of compounds and the four cell lines, read-out: IC50 value range towards all the cancer cell lines
# Method: as §1
# MCF-7 cells = assay: In vitro cytotoxicity, MTT assay, MCF-7; format: cell-based, human; settings: 48 h continuous drug exposure
# Method: as §1
# HeLa cells = assay: In vitro cytotoxicity, MTT assay, HeLa; format: cell-based, human; settings: Homo sapiens, HeLa (cervical carcinoma), 48 h continuous drug exposure
# Method: as §1
# A549 cells = assay: In vitro cytotoxicity, MTT assay, A549; format: cell-based, human; settings: Homo sapiens, A549 (non-small cell lung cancer), 48 h continuous drug exposure
# Method: as §1
# tubulin = settings: by binding at colchicine binding site; Simoni et al., J. Med. Chem. 2008; cited from earlier work
# [2] = Homo sapiens, MCF7, MCF-7 (breast cancer)
# [3] = Homo sapiens, MCF7, 48 h, MCF-7 (breast cancer)
SMILES,IC50 (HCT116 cells) [µM],IC50 [1] [nM],IC50 (MCF-7 cells; [2]) [µM],IC50 (HeLa cells) [µM],IC50 (A549 cells) [µM],IC50 (MCF-7 cells; [3]) [µM],IC50 (MCF-7 cells; MCF-7 (breast cancer)) [µM],"inhibited tubulin polymerization, compared with CA-4 (tubulin)"
"COc1ccc(C(=O)/C=C\Nc2cc(/C=C\c3cc(OC)c(OC)c(OC)c3)ccc2OC)cc1N [Compound 10u, (Z)-1-(3-amino-4-methoxyphenyl)-3-((2-methoxy-5-((Z)-3,4,5-trimethoxystyryl)phenyl)amino)prop-2-en-1-one]",0.77,110 to 4680,0.25,0.52,2.4,–,–,–
"COc1ccc(/C=C\c2cc(OC)c(OC)c(OC)c2)c(N/C=C\C(=O)c2cc(OC)c(OC)c(OC)c2Br)c1O [Compound 16y, (Z)-1-(2-bromo-3,4,5-trimethoxyphenyl)-3-((2-hydroxy-3-methoxy-6-((Z)-3,4,5-trimethoxystyryl)phenyl)amino)prop-2-en-1-one]",2.69,180 to 7330,–,1.78,7.08,0.19,–,–
"COc1cc(/C=C\c2cc(OC)c(OC)c(OC)c2)cc(N/C=C\C(=O)c2ccc(OC(F)(F)F)cc2)c1OC [Compound 11o, (Z)-3-((2,3-dimethoxy-5-((Z)-3,4,5-trimethoxystyryl)phenyl)amino)-1-(4-(trifluoromethoxy)phenyl)prop-2-en-1-one]",7.08,120 to 5750,–,1.86,0.21,5.7,5.75,–
"COc1ccc(C(=O)/C=C\Nc2cc(/C=C\c3cc(OC)c(OC)c(OC)c3)cc(OC)c2OC)cc1O [Compound 11q, (Z)-3-((2,3-dimethoxy-5-((Z)-3,4,5-trimethoxystyryl)phenyl)amino)-1-(3-hydroxy-4-methoxyphenyl)prop-2-en-1-one]",3.24,120 to 5750,–,1.91,0.32,2.09,–,–
"COc1cc(/C=C\c2ccc(OC)c(N)c2)cc(OC)c1 [S4 (Ca-4 amine), (Z)-5-(3,5-dimethoxystyryl)-2-methoxyaniline, reference compound]",1.62,–,–,0.58,1.78,4.07,–,five times stronger than CA-4
"COc1ccc(C(=O)/C=C\Nc2cc(/C=C\c3cc(OC)c(OC)c(OC)c3)cc(OC)c2OC)cc1N [Compound 11u, (Z)-1-(3-amino-4-methoxyphenyl)-3-((2,3-dimethoxy-5-((Z)-3,4,5-trimethoxystyryl)phenyl)amino)prop-2-en-1-one]",7.59,120 to 5750,–,4.27,0.12,5.25,–,–
"COc1ccc(C(=O)/C=C\Nc2cc(/C=C\c3cc(OC)c(OC)c(OC)c3)ccc2OC)cc1O [Compound 10q, (Z)-1-(3-hydroxy-4-methoxyphenyl)-3-((2-methoxy-5-((Z)-3,4,5-trimethoxystyryl)phenyl)amino)prop-2-en-1-one]",0.83,110 to 4680,–,0.23,3.89,4.68,–,–
"COc1ccc(/C=C\c2cc(OC)c(OC)c(OC)c2)cc1N/C=C\C(=O)c1ccc(OC)c([N+](=O)[O-])c1 [Compound 10t, (Z)-1-(4-methoxy-3-nitrophenyl)-3-((2-methoxy-5-((Z)-3,4,5-trimethoxystyryl)phenyl)amino)prop-2-en-1-one]",1.29,110 to 4680,–,0.21,0.77,2,–,–
"COc1ccc(C(=O)/C=C\Nc2cc(/C=C\c3cc(OC)c(OC)c(OC)c3)cc(OC)c2OC)cc1[N+](=O)[O-] [Compound 11t, (Z)-3-((2,3-dimethoxy-5-((Z)-3,4,5-trimethoxystyryl)phenyl)amino)-1-(4-methoxy-3-nitrophenyl)prop-2-en-1-one]",4.79,120 to 5750,–,1.2,0.15,1.55,–,–
"COc1cc(C=Cc2cc(OC)c(OC)c(OC)c2)cc(N/C=C\C(=O)c2cn(C)c3ccccc23)c1OC [Compound 11w, (Z)-3-(2,3-dimethoxy-5-(3,4,5-trimethoxystyryl)phenylamino)-1-(1-methyl-1H-indol-3-yl)prop-2-en-1-one]",1.95,120 to 5750,–,5.89,0.14,3.39,–,–
"COc1ccc(C(=O)/C=C\Nc2c(/C=C\c3cc(OC)c(OC)c(OC)c3)ccc(OC)c2O)cc1O [Compound 16q, (Z)-3-((2-hydroxy-3-methoxy-6-((Z)-3,4,5-trimethoxystyryl)phenyl)amino)-1-(3-hydroxy-4-methoxyphenyl)prop-2-en-1-one]",6.76,180 to 7330,–,4.17,1.58,0.2,–,–
"COc1cc(C=Cc2cc(OC)c(OC)c(OC)c2)cc(N/C=C\C(=O)c2c[nH]c3ccccc23)c1OC [Compound 11v, (Z)-3-(2,3-dimethoxy-5-(3,4,5-trimethoxystyryl)phenylamino)-1-(1H-indol-3-yl)prop-2-en-1-one]",1.48,120 to 5750,3.02,0.67,0.56,–,–,–
"COc1ccc(C=Cc2cc(OC)c(OC)c(OC)c2)cc1N/C=C\C(=O)c1c[nH]c2ccccc12 [Compound 10v, (Z)-1-(1H-indol-3-yl)-3-(2-methoxy-5-(3,4,5-trimethoxystyryl)phenylamino)prop-2-en-1-one]",0.33,110 to 4680,–,0.53,0.17,0.11,–,–
"COc1ccc(/C=C\c2cc(OC)c(OC)c(OC)c2)c(N/C=C\C(=O)c2cc(OC)c(OC)c(OC)c2)c1O [Compound 16x, (Z)-3-((2-hydroxy-3-methoxy-6-((Z)-3,4,5-trimethoxystyryl)phenyl)amino)-1-(3,4,5-trimethoxyphenyl)prop-2-en-1-one]",3.63,180 to 7330,–,0.56,0.25,0.23,–,–
